The text below walks through data of ChEMBL document CHEMBL5338716, “Synthesis and anti-trypanosomal evaluation of novel N-branched acyclic nucleoside phosphonates bearing 7-aryl-7-deazapurine nucleobase” (Eur J Med Chem, 2022).

Data set [1] relates to Trypanosoma brucei brucei. In words: Antitrypanosomal activity against Trypanosoma brucei brucei assessed as reduction in parasite growth by cell-based assay. The class given is functional, organism-based.
A short description of data set [2]: Cytotoxicity against human HepG2 cells assessed as cell growth inhibition. The format is toxicity, cell-based.
A short description of data set [3]: Selectivity index, ratio of IC50 for human NHDF cells to EC50 for Trypanosoma brucei brucei. The class given is functional.
Data set [4] is described as follows: Cytotoxicity against human HL-60 cells assessed as cell growth inhibition. The format is toxicity, cell-based.
Data set [5] is described as follows: Cytotoxicity against human HeLa S3 cells assessed as cell growth inhibition. The class given is toxicity, cell-based.
Data set [6] is described as follows: Cytotoxicity against human NHDF cells assessed as cell growth inhibition. The class given is toxicity, cell-based.
The nature of data set [7]: Cytotoxicity against human CCRF-CEM cells assessed as cell growth inhibition. The class given is toxicity, cell-based.
Data set [8] can be described thus: Binding affinity to Trypanosoma brucei […] assessed as inhibition constant.
A short description of data set [9]: Selectivity index, ratio of EC50 for human MRC5 cells to EC50 for Trypanosoma brucei brucei. The format is functional.

pEC50, pIC50, pKi: −log10 of the molar value. Bounds are passed on as bounds.

In general, pEC50 refers to −log10 of the EC50, conventionally taken in molar units. What is called pIC50 is −log10 of the IC50, conventionally taken in molar units. As to `CCOC(=O)[C@H](Cc1ccccc1)NP(=O)(CCN(CCn1cc(-c2ccc(OC)cc2)c2c(N)ncnc21)CCP(=O)(N[C@@H](Cc1ccccc1)C(=O)OCC)N[C@@H](Cc1ccccc1)C(=O)OCC)N[C@@H](Cc1ccccc1)C(=O)OCC`, in data set [1], the pEC50 is 6.24. Moreover, the pIC50 in [2] is 5.18; in [4], 5.34; in [5], 5.27; in data set [6] it was 5.02; in data set [7] it was 5.40. In data set [3], the “Selectivity Index” value came to 16.4.
A word on the pKi: it is the Ki on a negative log10 scale, so that one unit is a factor of ten. Turning to `COc1ccc(-c2cn(CCN(CCC#N)CCP(=O)(O)O)c3ncnc(N)c23)cc1`, in data set [8], the pKi is 5.66.
Regarding `Nc1ncnc2c1ccn2[C@@H]1O[C@H](CO)[C@@H](O)[C@H]1O` [TUBERCIDIN], the pEC50 in [1] was 6.80. In data set [9], the “Ratio EC50” value came out at 4. Besides, the pIC50 in data set [2] was 7.30; in data set [4], 6.85; in data set [5] it was 7.00; in [6], 7.15; in [7] it was 6.96. In data set [3], the “Selectivity Index” value was determined as 0.4. Further, the pKi in data set [8] is roughly 3.48.
On to `Nc1ncnc2c1c(-c1ccccc1)cn2CCN(CCP(=O)(O)O)CCP(=O)(O)O`, for which the pKi in data set [8] is 4.97.
In the case of `CCOC(=O)[C@H](Cc1ccccc1)NP(=O)(CCN(CC#N)CCn1cc(-c2ccccc2)c2c(N)ncnc21)N[C@@H](Cc1ccccc1)C(=O)OCC`, the negative logarithm of the EC50 (pEC50) in data set [1] is 5.79. The pIC50 in data set [2] is less than 4.70; in [4] it was 5.06; in data set [5], 4.96; in [6], 4.98; in data set [7], 5.23. For the same compound, the “Selectivity Index” value in data set [3] is recorded as 6.5.
Consider `N#CCN(CCn1cc(-c2ccccc2)c2c(N)ncnc21)CCP(=O)(O)O`, for which the pKi in [8] is 5.02.
On to `CCOC(=O)[C@H](Cc1ccccc1)NP(=O)(CCN(CCO)CCn1cc(-c2ccccc2)c2c(N)ncnc21)N[C@@H](Cc1ccccc1)C(=O)OCC`, for which, in data set [1], the pEC50 was 5.72. Further, the pIC50 in data set [2] is 4.83; in [4], less than 4.70; in data set [5] it was less than 4.70; in data set [6] it was 4.72; in [7] it was 5.17. In data set [3], the “Selectivity Index” value is given as 10.
For the compound `CCOC(=O)[C@H](Cc1ccccc1)NP(=O)(CCN(CCO)CCn1cc(-c2ccc(OC)cc2)c2c(N)ncnc21)N[C@@H](Cc1ccccc1)C(=O)OCC`, the pEC50 in [1] was 5.46. For the same compound, the pIC50 in data set [2] was less than 4.70; in [4], less than 4.70; in [5] it was less than 4.70; in [6], 4.88; in data set [7] it was 5.21. For the same compound, the “Selectivity Index” value in [3] worked out at 3.8.
`COc1ccc(-c2cn(CCN(CCP(=O)(O)O)CCP(=O)(O)O)c3ncnc(N)c23)cc1`: in [8], the pKi is 5.40.
As to `N#CCCN(CCn1cc(-c2ccccc2)c2c(N)ncnc21)CCP(=O)(O)O`, in [8], the negative-log Ki (pKi) was 5.76.
For the compound `CCOC(=O)[C@H](Cc1ccccc1)NP(=O)(CCN(CCC#N)CCn1cc(-c2ccccc2)c2c(N)ncnc21)N[C@@H](Cc1ccccc1)C(=O)OCC`, the pEC50 in data set [1] was 5.38. In addition, the negative-log IC50 (pIC50) in [2] is 4.85; in [4], 5.07; in [5], less than 4.70; in data set [6] it was less than 4.70; in [7], 5.25. Further, the “Selectivity Index” value in [3] was greater than 4.8.
On to `CCOC(=O)[C@H](Cc1ccccc1)NP(=O)(CCN(CC#N)CCn1cc(-c2ccc(OC)cc2)c2c(N)ncnc21)N[C@@H](Cc1ccccc1)C(=O)OCC`, for which the pEC50 in [1] is 5.65. For the same compound, the pIC50 in data set [2] was less than 4.70; in data set [4], 5.17; in data set [5], less than 4.70; in data set [6], 5.10; in [7], 5.38. The “Selectivity Index” value in data set [3] worked out at 3.5.
On to `COc1ccc(-c2cn(CCN(CC#N)CCP(=O)(O)O)c3ncnc(N)c23)cc1`, for which the pKi in data set [8] was 4.96.
Still for that read-out and setting: next, `Nc1ncnc2c1c(-c1ccccc1)cn2CCN(CCO)CCP(=O)(O)O`: 4.85; `COc1ccc(-c2cn(CCN(CCO)CCP(=O)(O)O)c3ncnc(N)c23)cc1`: 5.65.
For `CCOC(=O)[C@H](Cc1ccccc1)NP(=O)(CCN(CCC#N)CCn1cc(-c2ccc(OC)cc2)c2c(N)ncnc21)N[C@@H](Cc1ccccc1)C(=O)OCC`, the pEC50 in data set [1] is 5.17. Besides, the negative logarithm of the IC50 (pIC50) is less than 4.70 in data set [2]; less than 4.70 in [4]; less than 4.70 in data set [5]; 4.79 in data set [6]; less than 4.70 in [7]. In addition, the “Selectivity Index” value in data set [3] is 2.4.
For the compound `CCOC(=O)[C@H](Cc1ccccc1)NP(=O)(CCN(CCn1cc(-c2ccccc2)c2c(N)ncnc21)CCP(=O)(N[C@@H](Cc1ccccc1)C(=O)OCC)N[C@@H](Cc1ccccc1)C(=O)OCC)N[C@@H](Cc1ccccc1)C(=O)OCC`, the pEC50 in [1] was 5.92. The pIC50 in data set [2] is 5.20; in data set [4], 5.38; in data set [5], 5.31; in data set [6], 5.05; in data set [7] it was 5.42. The “Selectivity Index” value in data set [3] is recorded as 7.4.
